In US20240124510A1, “Cyclic Glycoaminoacid Derivatives” (TFCHEM, priority 2021, published 2024):
Values joined by “and” are separate entries in the source; they are usually repeats but may differ in a detail not shown here. Equal values may be shown once.

Assays:
Type in all cases: cell-based
IL-6 = IL-6 secretion in coculture of human aged fibroblasts and mature adipocytes (AM3D-FB2D, ELISA); details: for secretion of IL-6 in percentage of the coculture control condition, Values (%): individual replicates
Excerpt: In order to evaluate its effect on fibroblast matrix and its anti-inflammatory properties, the effect of compound 6 has been tested on an adipocytes-aged fibroblasts coculture model, mimicking the interactions between dermis and hypodermis in the skin and allowed to explore in parallel the biological effects of the products on two cellular targets.
• Experimental model: co-culture of human mature adipocytes cultured in 3D and human dermal fibroblasts cultured in 2D (AM3D-FB2D co-culture). This experimental model of AM3D-FB2D co-culture mimicked the interactions between dermis and hypodermis in the skin and allowed to explore in parallel the biological effects of the products on two cellular targets. • Donor characteristics: This study was performed on mature adipocytes and fibroblasts from two different donors (one donor for mature adipocytes and another donor for dermal fibroblasts). • Fibroblasts donor=person, BMI=28 kg/m^2 • Adipocytes donor=person, BMI=21.4 kg/m^2 • Treatment procedure: compound 6 was added to the co-culture medium daily for up to 6 days
Dermal fibroblasts were seeded in DMEM 10% FBS at 10000 cells/well. The day after, the adipocytes capsules of 50 μl were added in suspension above the fibroblasts and the medium was changed and replaced by a specific culture medium for the co-culture AM3D-FB2D. The formation of adipocytes capsules followed an internal standardized protocol. Briefly, the fully mature adipocytes were isolated from the hypodermis after digestion by collagenase. The isolated adipocytes were then washed with a wash buffer and encapsulated in a peptidic hydrogel to form 3D adipocytes capsules of 50 μl in size. Cells were incubated at 37° C. and 5% CO2 overnight for stabilization. Treatments were initiated at DO with a medium change at DO, D2, D3 and D5. The entire culture media of 24 h incubation was collected at D3 and D6, before being centrifugated and stored at −80° C. Each culture condition was done in triplicate.
The biochemical analyses on culture media were performed via ELISA using specific kits according to the manufacturer's recommendations: IL-6 (Duoset DY206, R&D Systems), and Hyaluronic Acid (HA) (Duoset, DY3614-05, R&D Systems and Procollagen I (Duoset, DY6220-05, R&D Systems) The results of HA and Procollagen I were normalized by fibroblasts cell number regarding the fact that these molecules were secreted mainly by fibroblasts. All the biochemical results were represented in percentage of the control condition.
To evaluate the effect of the compound 6 on inflammation, the extracellular concentrations of IL-6, that is secreted by the fibroblasts but mainly by the adipocytes, were measured at D3 and D6.

[1] = system: Normal human epidermal keratinocytes (NHEK); test: Total lipid neosynthesis in NHEK ([14C]-acetate incorporation); details: 48 hours; for [14C]-Acetate (cpm): individual replicates
Protocol: Normal human epidermal keratinocytes (NHEK) were seeded in 12-well plates and incubated in culture medium for 24 hours. The medium was then replaced by culture medium containing or not (control) the test compounds or the reference (CaCl2+Vitamin C at 1.5 mM+200 μg/ml respectively) in the presence of the radioactive tracer [^14C]-acetate. Cells were incubated for 48 hours. All experimental conditions were performed in triplicate.
Culture medium was Keratinocyte-SFM supplemented with Epidermal Growth Factor (EGF) 0.25 ng/ml, Pituitary extract (PE) 25 μg/ml and Gentamycin 25 μg/ml. The assay medium was Keratinocyte-SFM supplemented with Gentamycin 25 μg/ml.
At the end of incubation, cells were rinsed with PBS solution and then detached from their support by trypsin treatment. The [^14C]-acetate incorporation was then measured by liquid scintillation (measure of radioactivity). The incorporation is correlated with the total lipid neosynthesis. Results presented in Table 23 are expressed as cpm and % of control.

human preadipocytes = test: Proliferation of preadipocytes in inflammatory condition (DAPI nuclei staining); details: for Cells number at the end of the culture (DAPI staining), Values: individual values; for Cell number (DAPI staining): preadipocytes, inflammatory conditions (AcMC), AcMC control 12 819 AU
Protocol: Preadipocytes have been isolated from human female hypodermis (body mass index <30 kg/m2 and <45 years old). Preadipocytes have been cultured for 24 h in 100 μl of DMEM-10% Fetal Bovine Serum (FBS) in 96-well plates. Then cells were treated to induce their differentiation in a classical or an inflammatory environment for 13 days.
To induce the preadipocytes differentiation cells were incubated in a proadipogenic cocktail (PAC) including insulin, glucocorticoid, 3-isobutyl-1-methylxanthine (IBMX), and thiazolinedione in DMEM.
To induce a fibro-inflammatory environment, cells were treated with an activated human macrophage-conditioned medium (AcMC) prepared in RPMI medium. A treatment with Dexamethasone (DXM) at 100 nM was used as anti-inflammatory response control. At D0: preadipocytes have been treated in the following conditions: • “Undifferentiation”: DMEM+¼ RPMI medium • “Differentiation”: PAC+¼ RPMI medium • “AcMC” i.e. inflammatory condition: PAC+¼ AcMC • “AcMC+DXM”: PAC+[…] AcMC+anti-inflammatory DXM at 100 nM • “AcMc+compounds”: PAC+14 AcMC+compounds to be tested
All conditions have been performed in triplicate. The medium has been changed every 2 days for 13 days.
The number of cells was determined for each condition by DAPI nuclei staining (nuclei) and expressed in arbitrary unit.

`N[C@H]1CCCN(CC(F)(F)[C@]2(O)O[C@H](CO)[C@H](O)[C@H](O)[C@H]2O)C1=O` [Compound 6] was tested, and the “IL-6 secretion in percentage of the coculture control condition” value (“IL-6 secretion in percentage” below) (IL-6; 2 mg/ml, D3) was 72%, the “IL-6 secretion in percentage” value (IL-6; 2 mg/ml, D6) was 53% and the “IL-6 secretion in percentage” value (IL-6; 3 mg/ml, D3) was 73%. For the same molecule, the “IL-6 secretion in percentage” value (IL-6; 3 mg/ml, D6) was 61%, the “secretion of IL-6 in percentage of the coculture control condition, Mean (%)” value (from here on “secretion of IL-6 in percentage … Mean (%)”) (IL-6; D3, 2 mg/ml) was 72% and the “secretion of IL-6 in percentage of the coculture control condition, Values (%)” value (“secretion of IL-6 in percentage … Values (%)” below) (IL-6; D3, 2 mg/ml) was 56% and 78% and 82%. The “secretion of IL-6 in percentage … Mean (%)” value (IL-6; D3, 3 mg/ml) was 73%, the “secretion of IL-6 in percentage … Values (%)” value (IL-6; D3, 3 mg/ml) was 75% and 63% and 79% and the “secretion of IL-6 in percentage … Mean (%)” value (IL-6; D6, 2 mg/ml) was 53%. The “secretion of IL-6 in percentage … Values (%)” value (IL-6; D6, 2 mg/ml) was 46% and 66% and 45%, the “secretion of IL-6 in percentage … Mean (%)” value (IL-6; D6, 3 mg/ml) was 61% and the “secretion of IL-6 in percentage … Values (%)” value (IL-6; D6, 3 mg/ml) was 59% and 54% and 71%. The “% Control (total lipid neosynthesis)” value ([1]; 1 mg/ml) was 110%, the “% Stimulation (total lipid neosynthesis)” value ([1]; 1 mg/ml) was 10% and the “[14C]-Acetate Mean (cpm)” value ([1]; 1 mg/ml) was 78584 cpm. The “[14C]-Acetate (cpm)” value ([1]; 1 mg/ml) was 77267 cpm and 78905 cpm and 79581 cpm, the “% Control (total lipid neosynthesis)” value ([1]; 3 mg/ml) was 121% and the “% Stimulation (total lipid neosynthesis)” value ([1]; 3 mg/ml) was 21%. The “[14C]-Acetate Mean (cpm)” value ([1]; 3 mg/ml) was 86022 cpm, the “[14C]-Acetate (cpm)” value ([1]; 3 mg/ml) was 84794 cpm and 87349 cpm and 85922 cpm and 86860 cpm and the “Stimulation of lipid synthesis compared to the control” value ([1]; 1 mg/ml) was 10%. For the same molecule, the “Stimulation of lipid synthesis compared to the control” value ([1]; 3 mg/ml) was 21%, the “Cells number at the end of the culture, DAPI staining, Mean” value (human preadipocytes; AcMC + 1 mg/ml) was 18154 AU and the “Cells number at the end of the culture (DAPI staining), Values” (human preadipocytes; AcMC + 1 mg/ml) was 18502 AU and 17976 AU and 17985 AU. The “Cells number at the end of the culture, DAPI staining, Mean” value (human preadipocytes; AcMC + 2 mg/ml) was 20147 AU, the “Cells number at the end of the culture (DAPI staining), Values” (human preadipocytes; AcMC + 2 mg/ml) was 20261 AU and 20369 AU and 19811 AU and the “Cell number (DAPI staining)” value (human preadipocytes; 1 mg/ml) was 18 154 AU. For the same molecule, the “Cell number (DAPI staining)” value (human preadipocytes; 2 mg/ml) was 20 147 AU.
